Measured values: patent US20240366606A1, “MRGPRX2 ANTAGONISTS AND USES THEREOF” (The Regents of the University of California, priority 2021, published 2024)
Entries after “also recorded” stand apart in the source; their conditions may differ. Like-named read-outs stand apart in the source and are kept apart here.

What was measured:
MRGPRX2 [1] = molecular target: T1, MRGPRX2 (Homo sapiens (Human), UniProt Q96LB1); test: FLIPR Ca2+ assay, antagonist mode, tetracycline-inducible MRGPRX2 stable cell line; type: cell-based; conditions: for antagonist activity for MRGPRX2: in words, SAR around '1592; for inhibition of substance P stimulated MRGPRX2 activation: EC80 substance P concentration
Description: FLIPR Ca2+ assay. […] NK1 stably expressing cell were maintained in DMEM containing 10% (v/v) FBS, 100 units ml^−1 penicillin G and 100 μg ml^−1 streptomycin. On the day of assay, cells were plated into Poly-L-Lysine (PLL) coated 384-well black clear bottom cell culture plates with DMEM buffer, which is composed of 1% (v/v) dialyzed FBS, 100 units ml^−1 penicillin G, 100 μg ml^−1 streptomycin with 1 μg ml^−1 tetracycline at density of 20,000 cells in 40 μl per well for overnight. For NK1 stable cells, the same media used for MRGPRX2 or MRGPRX4 cells except the tetracycline were used. Medium was removed and cells were incubated with 20 μl of calcium dye (FLIPR Calcium 4 Assay Kit; Molecular Devices) diluted in assay buffer (1×HBSS, 2.5 mM probenecid, and 20 mM HEPES, pH 7.4) for 1 hour at 37° C. and 20 min at room temperature in the dark. To measure agonist activity of receptors, drug plates were prepared with increasing concentrations of test compound at 3 times the desired final concentration using drug buffer (1×HBSS, 20 mM HEPES, 0.1% (w/v) BSA, pH 7.4). Once loaded in FLIPR (Molecular Devices), basal fluorescence was measured for 10 s, then 10 μl of test compounds were added followed by continued fluorescence measurement for an additional 120 s. When measuring antagonist activity of receptors, drug plates were prepared with increasing concentrations of test compound at 4 times the desired final concentration, added as above for their potential effects on basal levels for 120 s first, followed by a 15 min incubation before addition of 10 μl of 4× of reference agonist at final concentration corresponding to the EC80. Data were normalized to % reference compound stimulation and analyzed using nonlinear regression “log(agonist) vs. response” in GraphPad Prism 9.0.

MRGPRX2 [2] = molecular target: T1, MRGPRX2; test: BRET1 recruitment assay (inverse agonist activity, miniGq recruitment) in HEK293T cells; type: cell-based
Description: Bioluminescence resonance energy transfer assay 1 (BRET1). To test the inverse agonist activities of MRGPRX2 compounds, BRET1 recruitment assay was performed. Human MRGPRX2 containing C-terminal Renilla luciferase (RLuc8), and Venus-tagged miniGq were co-transfected at a ratio of 1:5 using HEK293T cells. After 20-24 hours, transfected cells were plated into poly-L-lysine coated 96-well clear bottom white plate in plating media (DMEM+1% (v/v) dialyzed FBS). The next day, media was decanted and cells were washed once with 60 μl drug buffer (1×HBSS, 20 mM HEPES, 0.1% (w/v) BSA, pH 7.4), then 60 μl drug buffer containing 5 μM coelenterazine h (Promega) was added to each well and incubate for 5 min. Cells were then treated with 30 μl of 3× designated drug for an additional 5 minutes. After drug incubation, plates were read in an LB940 Mithras plate reader (Berthold Technologies) for both luminescence at 485 nm and fluorescent eYFP emission at 530 nm for 1 s per well. The ratio of eYFP/RLuc was calculated per well and the net BRET ratio was calculated and fitted using “log(inhibitor) vs. response” in GraphPad Prism 9.0 to represent the inhibitory effect of MRGPX2 compound.

NK1R = NK1R (Homo sapiens (Human), UniProt P25103); test: FLIPR Ca2+ assay, antagonist mode, NK1R stable cell line; type: cell-based
Description: (§1) FLIPR Ca2+ assay. Tetracycline inducible MRGPRX2 or MRGPRX4 stable cells [Flp-In™ T-REx™-293 cell which is derived from HEK 293 cells (ATCC, CRL 1573)] were maintained in DMEM containing 10% (v/v) FBS, 100 units ml^−1 penicillin G, 100 μg ml^−1 streptomycin, 100 μg ml^−1 hygromycin B, and 15 μg ml^−1 blasticidin ^16. NK1 stably expressing cell were maintained in DMEM containing 10% (v/v) FBS, 100 units ml^−1 penicillin G and 100 μg ml^−1 streptomycin. On the day of assay, cells were plated into Poly-L-Lysine (PLL) coated 384-well black clear bottom cell culture plates with DMEM buffer, which is composed of 1% (v/v) dialyzed FBS, 100 units ml^−1 penicillin G, 100 μg ml^−1 streptomycin with 1 μg ml^−1 tetracycline at density of 20,000 cells in 40 μl per well for overnight. For NK1 stable cells, the same media used for MRGPRX2 or MRGPRX4 cells except the tetracycline were used. […] Once loaded in FLIPR (Molecular Devices), basal fluorescence was measured for 10 s, then 10 μl of test compounds were added followed by continued fluorescence measurement for an additional 120 s. […] Data were normalized to % reference compound stimulation and analyzed using nonlinear regression “log(agonist) vs. response” in GraphPad Prism 9.0.

MRGPRX4 = MRGPRX4 (Homo sapiens (Human), UniProt Q96LA9); test: FLIPR Ca2+ assay, antagonist mode, tetracycline-inducible MRGPRX4 stable cell line; type: cell-based
Description: as §1

[3] = test system: a number of GPCRs, ion channels and transporters; test: Off-target profiling / inhibition screen (NIMH PDSP binding assays); conditions: screened at 10 μM
Description: Inhibition screen. Binding assays were performed by the NIMH Psychoactive Drug Screening program as described previously (PMID: 23235874). Detailed binding assay protocols are available at: https://pdspdb.unc.edu/pdspWeb/content/UNC-CH %20Protocol %20Book.pdf.

LAD2 human mast cells = test: Human mast cell activation (beta-hexosaminidase release) assay; type: cell-based; conditions: (R)-ZINC-3573 stimulation; listed as C9
Description: Human Mast Cell activation (Beta-hexosaminidase release) Assay. Mast cell activation was assessed by measuring extracellular release of Beta-hexosaminidase, a major component of mast cell granules. To assay human mast cell Beta-hexosaminidase release, LAD2 human mast cells were seeded at a concentration of 2*10^5 cells per well in 96-well plates in Tyrode's buffer (100 μl). 15 minutes prior to activation, varying concentrations of either C7 or C9 were added to the wells to reach a total volume of 190 μl. For activation, (R)-ZINC-3573 (10 μl, 2 μM) was added to each well for 30 minutes at 37° C. Separate wells received either buffer (buffer control), 0.1% Triton X-100 (total beta-hexosaminidase control), or (R)-ZINC-3573 alone (positive control) for the same amount of time. 30 μl of the supernatant were then removed from each well and added to 10 μl of NAG substrate solution (p-nitrophenyl-N-acetyl-β-D-glucosaminide) and allowed to incubate for 1 hour at 37° C. Carbonate buffer (100 μl) was then added to each well and the absorbance of each well was immediately measured at 405 nm using a plate reader. Percent degranulation (%) was calculated as follows: ((Treatment release−buffer release)/(total release−buffer release))*100. Samples were run in quadruplicate and each compound was assayed in at least two independent experiments. Data were analyzed using GraphPad Prism 9.0.

[4] = Table 1, read-out: pKi (calc.) (converted)
[5] = antagonist activity at MRGPRX2, EC80 (R)-ZINC-3573 (3 μM), read-out: Ki value

T1 sequence (Q96LB1 whole entry): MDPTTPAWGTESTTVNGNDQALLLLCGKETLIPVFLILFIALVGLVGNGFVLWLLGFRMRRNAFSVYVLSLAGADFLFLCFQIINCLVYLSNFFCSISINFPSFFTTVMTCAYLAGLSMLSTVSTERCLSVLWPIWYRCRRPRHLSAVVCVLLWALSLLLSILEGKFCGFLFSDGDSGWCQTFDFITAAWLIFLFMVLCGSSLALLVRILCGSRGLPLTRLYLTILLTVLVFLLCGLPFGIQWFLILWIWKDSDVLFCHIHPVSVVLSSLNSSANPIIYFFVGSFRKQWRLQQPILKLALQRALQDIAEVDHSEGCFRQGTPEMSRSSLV
Chain of MRGPRX4 (Q96LA9 whole entry): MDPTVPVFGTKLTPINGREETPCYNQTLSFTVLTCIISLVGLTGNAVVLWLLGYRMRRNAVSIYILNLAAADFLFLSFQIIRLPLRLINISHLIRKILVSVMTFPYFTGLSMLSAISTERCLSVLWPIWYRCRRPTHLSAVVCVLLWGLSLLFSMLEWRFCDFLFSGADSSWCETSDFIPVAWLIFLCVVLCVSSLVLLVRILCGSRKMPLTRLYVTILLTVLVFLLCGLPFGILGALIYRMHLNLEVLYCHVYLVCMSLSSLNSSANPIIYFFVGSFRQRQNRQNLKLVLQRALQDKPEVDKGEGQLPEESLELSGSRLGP
Chain of NK1R (P25103 whole entry, species assumed): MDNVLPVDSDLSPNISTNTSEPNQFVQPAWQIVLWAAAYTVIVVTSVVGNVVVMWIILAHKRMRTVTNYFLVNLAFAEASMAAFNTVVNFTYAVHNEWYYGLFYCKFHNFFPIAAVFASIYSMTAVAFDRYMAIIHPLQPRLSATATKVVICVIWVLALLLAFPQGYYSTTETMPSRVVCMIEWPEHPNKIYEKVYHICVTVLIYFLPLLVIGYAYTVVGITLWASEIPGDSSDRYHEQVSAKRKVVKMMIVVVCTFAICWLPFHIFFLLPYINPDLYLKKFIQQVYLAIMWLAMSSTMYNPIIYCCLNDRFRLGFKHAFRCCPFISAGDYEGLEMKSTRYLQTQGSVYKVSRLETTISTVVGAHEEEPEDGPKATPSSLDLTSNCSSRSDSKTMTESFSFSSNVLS

Row | SMILES | pKi (calc.) (MRGPRX2 [1]; Table 1) | Ki (MRGPRX2 [1]; Table 1, read-out: Ki) [nM] | also measured
1 | O=c1c2ccccc2[nH]c(=S)n1CCc1ccccn1 [Compound 7] | 5.2 | 6520 | antagonist activity for MRGPRX2 (MRGPRX2 [1]): inactive control
2 | O=c1c2ccccc2[nH]c(=S)n1Cc1ccccc1 [Compound 1] |  | 57 | Ki (MRGPRX2 [1]; [4]): 63.1 nM
3 | O=c1c2cc(F)ccc2[nH]c(=S)n1Cc1ccccn1 [Compound 14] | 5.6 | 2520 | 
4 | Cc1csc(Cn2c(=S)[nH]c3ccccc3c2=O)n1 [Compound C9-7] | 6.03 ± 0.08 | 929 | 
5 | O=c1c2ccccc2[nH]c(=S)n1Cc1ccc(Cl)cc1 [Compound C9-3] | 5.75 ± 0.16 | 1780 | 
6 | O=c1c2ccccc2[nH]c(=S)n1Cc1ccccn1 [ZINC16991592, reference compound] |  | 2190 | Ki (MRGPRX2 [1]; [4]): 2340 nM; Ki (MRGPRX2 [1]; [5]): 189 nM
7 | COc1ccccc1Cn1c(=S)[nH]c2ccccc2c1=O [Compound C9-5] | 7.01 ± 0.07 | 98 | 
8 | COc1cccnc1Cn1c(=S)[nH]c2ccccc2c1=O [Compound 8] |  | 57 | Ki (MRGPRX2 [1]; [4]): 63.1 nM
9 | O=c1c2ccccc2[nH]c(=S)n1Cc1ccon1 [Compound C9-1] | 6.76 ± 0.21 | 172 | 
10 | O=c1c2ccccc2[nH]c(=S)n1Cc1cccs1 [Compound C9-8] | 6.29 ± 0.23 | 514 | 
11 | O=c1c2ccccc2[nH]c(=S)n1Cc1ccon1 [Compound 5] |  | 895 | Ki (MRGPRX2 [1]; [4]): 1000 nM
12 | Cn1ccnc1Cn1c(=S)[nH]c2ccccc2c1=O [Compound 6] | 6.5 | 318 | 
13 | O=c1c2ccccc2[nH]c(=S)n1Cc1ccsc1 [Compound C9-9] | 7.32 ± 0.04 | 47 | 
14 | O=c1c2ccccc2[nH]c(=S)n1Cc1ccccc1Cl [Compound C9-4] | 5.93 ± 0.3 | 1160 | 
15 | O=c1c2ccccc2[nH]c(=S)n1Cc1ccco1 [Compound C9-6] | 7.42 ± 0.06 | 38 | inhibition of substance P stimulated MRGPRX2 activation (MRGPRX2 [1]): inhibit substance P stimulated MRGPRX2 activation; also recorded: could inhibit MRGPRX2 activation; Ki (MRGPRX2 [1]; [5]): 58 nM; antagonist activity for MRGPRX2 (MRGPRX2 [1]): improved antagonist activity; also recorded: most potent and selective antagonist; inverse agonist activity, inhibition of basal recruitment of Gq by MRGPRX2 (MRGPRX2 [2]): inhibit the basal recruitment of Gq by MRGPRX2; also recorded: inverse agonists; antagonist activity towards NK1R (NK1R): no antagonist activity; antagonist activity towards MRGPRX4 (MRGPRX4): no antagonist activity; off-target activity [3]: no significant activity
16 | O=c1c2ccccc2[nH]c(=S)n1Cc1nccs1 [Compound 9] | 7.5 | 32 | inhibition of substance P stimulated MRGPRX2 activation (MRGPRX2 [1]; listed as C9): inhibit substance P stimulated MRGPRX2 activation; also recorded: could inhibit MRGPRX2 activation; Ki (MRGPRX2 [1]; [5]): 43 nM; antagonist activity for MRGPRX2 (MRGPRX2 [1]; listed as C9): improved antagonist activity; also recorded: most potent and selective antagonist; inverse agonist activity, inhibition of basal recruitment of Gq by MRGPRX2 (MRGPRX2 [2]; listed as C9): inhibit the basal recruitment of Gq by MRGPRX2; also recorded: inverse agonists; antagonist activity towards NK1R (NK1R): no antagonist activity; antagonist activity towards MRGPRX4 (MRGPRX4): no antagonist activity; inhibition of (R)-ZINC-3573-stimulated LAD2 human mast cell degranulation (LAD2 human mast cells): inhibit MRGPRX2 mediated LAD2 human mast activation; also recorded: inhibit (R)-ZINC-3573-stimulated LAD2 human mast cell degranulation in a concentration-dependent manner; off-target activity [3]: no significant activity
